Ends that are not written are not given here.
Legend:
[1] = system: Saccharomyces cerevisiae BY4741 ∆ppz2; assay: Yeast growth inhibitory assay; assay type: cell-based; details: BY4741 ∆ppz2, MM medium, 24 hours, OD490nm, mean ± SEM, n ≥ 3; read-out: IC50 (growth inhibition)
[2] = system: Saccharomyces cerevisiae BY4741 ∆qdr2; assay: Yeast growth inhibitory assay; assay type: cell-based; details: BY4741 ∆qdr2, MM medium, 24 hours, OD490nm, mean ± SEM, n ≥ 3; read-out: IC50 (growth inhibition)
[3] = system: Saccharomyces cerevisiae BY4741 ∆sat4; assay: Yeast growth inhibitory assay; assay type: cell-based; details: BY4741 ∆sat4, MM medium, 24 hours, OD490nm, mean ± SEM, n ≥ 3; read-out: IC50 (growth inhibition)
HepG2 cells = assay type: cell-based; details: up to 25 μM, 24 hours, XTT, relative to untreated, at least two experiments in quadruplicate
Method: HepG2 cells were seeded at 10.000 cells/well in 96-well plates and incubated for 24 hours. Subsequently, cells were treated either with water (untreated) or rAtPDF2.3 (0.01 μM–23.5 μM) for 24 hours after which cell viability was determined using the ‘Cell Proliferation Kit II (XTT) as described previously. ANOVA followed by Dunnett post hoc test was performed to analyze statistically significant differences between untreated and rAtPDF2.3-treated samples.
Supplementary Figure S4 Activity of rAtPDF2.3 on HepG2 cell viability. HepG2 cells were treated either with water (untreated) or rAtPDF2.3 (0.01 µM – 24.3 µM) for 24 hours, after which cell viability was determined by XTT staining. Results are expressed relative to the untreated samples. Mean ± standard error of at least two experiments in quadruplicate is shown. ANOVA followed by Dunnet post hoc test performed to analyze statistically significant differences between untreated and rAtPDF2.3-treated samples; * represents P = 0.03.
(1 picture or pasted object on this page, not shown here)

[4] = system: Saccharomyces cerevisiae BY4741 ∆hal5; assay: Yeast growth inhibitory assay; assay type: cell-based; details: BY4741 ∆hal5, MM medium, 24 hours, OD490nm, mean ± SEM, n ≥ 3; read-out: IC50 (growth inhibition)
[5] = system: Saccharomyces cerevisiae BY4741 ∆kkq8; assay: Yeast growth inhibitory assay; assay type: cell-based; details: BY4741 ∆kkq8, MM medium, 24 hours, OD490nm, mean ± SEM, n ≥ 3; read-out: IC50 (growth inhibition)
[6] = system: Saccharomyces cerevisiae BY4741 ∆trk1; assay: Yeast growth inhibitory assay; assay type: cell-based; details: BY4741 ∆trk1, MM medium, 24 hours, OD490nm, mean ± SEM, n ≥ 3; read-out: IC50 (growth inhibition)
Fusarium culmorum = assay: Fungal growth inhibitory assay; assay type: cell-based; details: half strength PDB, 10^4 spores/mL, 48 hours, determined microscopically, n ≥ 3; read-out: IC50 (growth inhibition)
Shaker IR = assay: Two-electrode voltage-clamp on Shaker IR expressed in X. laevis oocytes; details: 3 μM, n ≥ 3
Method: (§1) For the expression of the voltage-gated potassium channels (rKv1.1, rKv1.2, hKv1.3, rKv1.4, rKv1.5, rKv1.6, Shaker IR, hKv3.1, rKv4.3, and hERG) in Xenopus laevis oocytes, the linearized plasmids were transcribed using the T7 or SP6 mMESSAGE-mMACHINE transcription kit (Ambion). The harvesting of stage V–VI oocytes from an anaesthetized female X. laevis frog was previously described[59]. Oocytes were injected with 50 nL of cRNA at a concentration of 1 ng/nL using a micro-injector (Drummond Scientific, USA). The oocytes were incubated in a solution containing (in mM): NaCl, 96; KCl, 2; CaCl2, 1.8; MgCl2, 2 and HEPES, 5 (pH 7.4), supplemented with 50 mg/L gentamycin sulfate.
(§2) Two-electrode voltage-clamp recordings were performed at room temperature (18–22 °C) using a Geneclamp 500 amplifier (Molecular Devices, USA) controlled by a pClamp data acquisition system (Axon Instruments, USA). Whole cell currents from oocytes were recorded 1–4 days after injection. Bath solution composition was ND96 (in mM): NaCl, 96; KCl, 2; CaCl2, 1.8; MgCl2, 2 and HEPES, 5 (pH 7.4) or HK (in mM): NaCl, 2; KCl, 96; CaCl2, 1.8; MgCl2, 2 and HEPES, 5 (pH 7.4). Voltage and current electrodes were filled with 3 M KCl. Resistances of both electrodes were kept between 0.7 and 1.5 MΩ. […] GV curves were calculated from IV relationships as follows: gK = IK/(Em−EK) with EK = (RT/zF)ln[K #0]o/[K #0]i. […]

[7] = system: Saccharomyces cerevisiae BY4741 ∆vhc1; assay: Yeast growth inhibitory assay; assay type: cell-based; details: BY4741 ∆vhc1, MM medium, 24 hours, OD490nm, mean ± SEM, n ≥ 3; read-out: IC50 (growth inhibition)
Kv1.6 channels = assay: Two-electrode voltage-clamp on Kv1.6 expressed in X. laevis oocytes; details: n ≥ 3
Method: as §1
(§3) Two-electrode voltage-clamp recordings were performed at room temperature (18–22 °C) using a Geneclamp 500 amplifier (Molecular Devices, USA) controlled by a pClamp data acquisition system (Axon Instruments, USA). Whole cell currents from oocytes were recorded 1–4 days after injection. Bath solution composition was ND96 (in mM): NaCl, 96; KCl, 2; CaCl2, 1.8; MgCl2, 2 and HEPES, 5 (pH 7.4) or HK (in mM): NaCl, 2; KCl, 96; CaCl2, 1.8; MgCl2, 2 and HEPES, 5 (pH 7.4). Voltage and current electrodes were filled with 3 M KCl. Resistances of both electrodes were kept between 0.7 and 1.5 MΩ. The elicited currents were filtered at 0.5 kHz and sampled at 2 kHz (for potassium currents) or filtered at 2 kHz and sampled at 20 kHz (for sodium currents) using a four-pole low-pass Bessel filter. Leak subtraction was performed using a -P/4 protocol. Kv1.1–Kv1.6 and Shaker currents were evoked by 250 ms depolarizations to 0 mV followed by a 250 ms pulse to −50 mV, from a holding potential of −90 mV. Current traces of hERG channels were elicited by applying a +40 mV prepulse for 2 s followed by a step to −120 mV for 2 s. […] In order to investigate the current–voltage relationship, current traces were evoked by 10 mV depolarization steps from a holding potential of −90 mV. To assess the concentration dependency of the toxin induced inhibitory effects, a concentration–response curve was constructed, in which the percentage of current inhibition was plotted as a function of toxin concentration. Data were fitted with the Hill equation: y = 100/[1 + (IC50/[toxin])^h], were y is the amplitude of the toxin-induced effect, IC50 is the toxin concentration at half-maximal efficacy, [toxin] is the toxin concentration, and h is the Hill coefficient. GV curves were calculated from IV relationships as follows: gK = IK/(Em−EK) with EK = (RT/zF)ln[K #0]o/[K #0]i. In these equations gK represents the conductance, IK the potassium current, Em the membrane potential, EK the reversal potential, R the gas constant (8.31 J/K mol), T the temperature, z the charge of the ion (for K+ ions: z = 1), F the Faraday’s constant (96.500 C/mol), [K #0]o and [K #0]i respectively are the extracellular and intracellular K+ ion concentrations. The values of IK or gK were plotted as function of voltage and fitted using the Boltzmann equation: gK/gmax = [1 + exp(Vg−V)/k]−1, were gmax represents maximal gK, Vg is the voltage corresponding to half-maximal conductance, and k is the slope factor. Comparison of two sample means was made using a paired Student’s t test (P < 0.05). All data represent at least three independent experiments (n ≥ 3) and are presented as mean ± standard error.

Kv1.2 channels = assay: Two-electrode voltage-clamp on Kv1.2 expressed in X. laevis oocytes; details: for inhibition of the potassium current: Kv1.2, n ≥ 5
Method: as §1, §3

Kv1.1 = assay: Two-electrode voltage-clamp on Kv1.1 expressed in X. laevis oocytes; details: 3 μM, n ≥ 3
Method: as §1, §2

[8] = system: Saccharomyces cerevisiae BY4741 ∆ppz1; assay: Yeast growth inhibitory assay; assay type: cell-based; details: BY4741 ∆ppz1, MM medium, 24 hours, OD490nm, mean ± SEM, n ≥ 3; read-out: IC50 (growth inhibition)
[9] = system: Saccharomyces cerevisiae BY4741 ∆trk2; assay: Yeast growth inhibitory assay; assay type: cell-based; details: BY4741 ∆trk2, MM medium, 24 hours, OD490nm, mean ± SEM, n ≥ 3; read-out: IC50 (growth inhibition)
[10] = system: Saccharomyces cerevisiae BY4741 ∆nha1; assay: Yeast growth inhibitory assay; assay type: cell-based; details: BY4741 ∆nha1, MM medium, 24 hours, OD490nm, mean ± SEM, n ≥ 3; read-out: IC50 (growth inhibition)
Botrytis cinerea B05.10 = assay: Fungal growth inhibitory assay; assay type: cell-based; details: half strength PDB, 10^4 spores/mL, 48 hours, determined microscopically, n ≥ 3; read-out: IC50 (growth inhibition)
Kv4.2 = assay: Two-electrode voltage-clamp on Kv4.2 expressed in X. laevis oocytes; details: 3 μM, n ≥ 3
Method: as §1, §2

Verticillium dahliae = assay: Fungal growth inhibitory assay; assay type: cell-based; details: half strength PDB, 10^4 spores/mL, 48 hours, determined microscopically, n ≥ 3; read-out: IC50 (growth inhibition)
[11] = system: Saccharomyces cerevisiae BY4741 ∆kch1; assay: Yeast growth inhibitory assay; assay type: cell-based; details: BY4741 ∆kch1, MM medium, 24 hours, OD490nm, mean ± SEM, n ≥ 3; read-out: IC50 (growth inhibition)
plant pathogenic fungi = assay: Fungal growth inhibitory assay, whole panel; assay type: cell-based; details: range over the fungal panel of Table 1, 48 hours; read-out: IC50 values against all plant pathogenic fungi tested (range)
[12] = system: Saccharomyces cerevisiae BY4741 ∆tok1; assay: Yeast growth inhibitory assay; assay type: cell-based; details: BY4741 ∆tok1, MM medium, 24 hours, OD490nm, mean ± SEM, n ≥ 3; read-out: IC50 (growth inhibition)
Nav1.5 = assay: Two-electrode voltage-clamp on Nav1.5 expressed in X. laevis oocytes; assay type: cell-based; details: 5 μM, n ≥ 4
Nav1.2 = assay: Two-electrode voltage-clamp on Nav1.2 expressed in X. laevis oocytes; assay type: cell-based; details: 5 μM, n ≥ 4
[13] = system: Saccharomyces cerevisiae BY4743 WT; assay: Yeast growth inhibitory assay; assay type: cell-based; details: MM medium, 24 hours, OD490nm, mean ± SEM, n ≥ 3, read-out: IC50 (growth inhibition)

rAtPDF2.3: Arabidopsis thaliana plant defensin AtPDF2.3 produced recombinantly in Pichia pastoris (RTCESKSHRFKGPCVSTHNCANVCHNEGFGGGKCRGFRRRCYCTRHC; ends and bridges not checked; cysteine pairing not given here)
IC50 [1]: 8.6 ± 0.5 µM
IC50 [2]: 2.9 ± 0.2 µM
IC50 [3]: 5.1 ± 0.1 µM
cell viability in HepG2 cells (HepG2 cells): does not reduce cell viability
IC50 [4]: 4 ± 0.4 µM
IC50 [5]: 7.1 ± 0.1 µM
IC50 [6]: 1.5 µM
IC50 (Fusarium culmorum): 1 ± 0.4 µM
activity on Shaker IR at single concentration (Shaker IR): no effect
IC50 [7]: 8 ± 0.2 µM
activity on Kv1.6 at single concentration (Kv1.6 channels; 3 μM): can block
IC50 (Kv1.6 channels; read-out: IC50 for Kv1.6, two-electrode voltage-clamp, X. laevis oocytes, concentration-response curve fitted with Hill equation, mean ± standard error): 0.978 ± 0.113 µM
inhibition of the potassium current (Kv1.2 channels; 2 μM, HK solution): 66 ± 4%
inhibition of the potassium current (Kv1.2 channels; 2 μM, ND96 solution): 59 ± 3%
activity on Kv1.2 at single concentration (Kv1.2 channels; 3 μM, n ≥ 3): can block
reversal potential EK after application of defensin (Kv1.2 channels; HK solution, 2 μM, Kv1.2, control −4 ± 1 mV, P > 0.05, n ≥ 4): −2 ± 1 mV
V1/2 of gV curve in the presence of defensin (Kv1.2 channels; ND96, 2 μM, Kv1.2, control 8 ± 3 mV, n ≤ 4 as printed): 5 ± 2 mV
reversibility of Kv1.2 block upon washout (Kv1.2 channels; current recovers quickly and completely upon washout (data not shown)): blocking is reversible
IC50 (Kv1.2 channels; read-out: IC50 for Kv1.2, two-electrode voltage-clamp, X. laevis oocytes, concentration-response curve fitted with Hill equation, mean ± standard error, n ≥ 3): 1.3 ± 0.2 µM
voltage dependence of inhibition of Kv1.2 channels (Kv1.2 channels; test potentials from −30 to +30 mV): not voltage-dependent
activity on Kv1.1 at single concentration (Kv1.1): no effect
IC50 [8]: 10.1 ± 0.5 µM
IC50 [9]: 7 ± 0.6 µM
IC50 [10]: 9.1 ± 0.7 µM
IC50 (Botrytis cinerea B05.10): 5.8 µM
activity on Kv4.2 (Shal) at single concentration (Kv4.2): no effect
IC50 (Verticillium dahliae): 4.4 ± 1.6 µM
IC50 [11]: 8.9 ± 0.3 µM
IC50 (plant pathogenic fungi): 1 to 5.8 µM
IC50 [12]: 7.7 ± 0.5 µM
activity on Nav1.5 (Nav1.5): does not show activity
activity on Nav1.2 (Nav1.2): does not show activity
IC50 [13]: 3.3 µM
